# Reference: US7109244B2, “Compositions and methods comprising long-chain, straight-chain 2-amino-3-hydroxyalkanes” (priority 1997, dated 2006)
# Like-named read-outs stand apart in the source and are kept apart here.
# How the values were obtained:
# [1] = test system: L1210 murine lymphocytic leukemia cells; experiment: L1210 cytotoxicity assay (inhibition of growth); format: cell-based
# Protocol: The morphological effect was usually measured 30–35 h after the start of the assay and again about 24 h later, while the cytotoxicity was determined when the number of cells in the controls reached approximately 8000, usually in 3 days after the assay was begun. It should be noted that the pointed cells were live cells and that they were counted as such for the cytotoxicity reading. […] All morphologically-changed cells were counted in the pointed cell percentage.
# Cytotoxicity assays against L1210 murine lymphocytic leukemia cells were performed by dissolving the samples in methanol and/or hexane were applied to the dry assay wells and the solvent was allowed to evaporate. Cells (1000) were added in minimum essential medium (MEM, 1 ml) and incubated 37° C. Inhibition of growth was recorded as the estimated percentage of living cells in sample wells versus that in control wells.
# [2] = test system: L1210 murine lymphocytic leukemia cells; experiment: L1210 morphological change (pointed cells); format: cell-based; settings: for % Pointed Cells 1st: 27 h
# Protocol: Referring to FIG. 1, in the L1210 assay some of the cells changed from being spherical (FIG. 1A) to ovoid with long points approximately […] apart (FIG. 1B). Several other forms have also been observed in assays of these extracts, including cells with points not […] apart (FIG. 1C), cells with more than two points (FIG. 1D), cells with a bulge (FIG. 1E) and cells with a bulge replacing one of the points (FIG. 1F). However, the form with two sharp, opposing points was by far the predominant and characteristic one observed. This type of morphological change had not previously been observed during the screening of over 1000 marine extracts.
# As discussed above, the spisulosines caused a distinct morphological change in L1210 leukemia cells, in addition to cytotoxicity. This bioactivity, which was recorded as the percentage of living cells in which altered morphology was observed, could be observed sometimes as early as 13 h after the start of the assay and reached a maximum at 50–60 h, after which it decreased. […] The morphological effect was usually measured 30–35 h after the start of the assay and again about 24 h later, while the cytotoxicity was determined when the number of cells in the controls reached approximately 8000, usually in 3 days after the assay was begun. It should be noted that the pointed cells were live cells and that they were counted as such for the cytotoxicity reading. Also, assays in which 100% cytotoxicity was recorded may still have contained live cells (<0.5%) which may or may not have been pointed. All morphologically-changed cells were counted in the pointed cell percentage.
# Morphologically-changed cells (FIGS. 1A–1F) were counted as living cells when determining the percent inhibition of growth. Morphological changes were assessed throughout the assay period. The percentage of pointed cells was determined by counting the number of altered cells in approximately 60 living cells. This percentage varied with the length of time the assay had been running. It generally reached its maximum about 50 hours after the start of the assay, but pointed cells could be observed as early as 13 hours after the start of the assay and could usually still be seen when the percent growth inhibition was measured. The percentages of pointed cells were often counted both after about 35 and after 55 hours. The time that this measurement was made is indicated with the data.
# [3] = test system: Vero cells; experiment: effect of LPA on the action of spisulosine 285 in Vero cells (Example D); format: cell-based
# Excerpt: LPA is known to increase the level of stress fibers in cells by activation of the Rho protein. The effect of LPA on cells treated with spisulosine 285, and untreated cells was examined. […]
# [4] = test system: Chinese hamster ovary (CHO) cells; settings: cited from earlier work
# [5] = test system: Nippostrongylus brasiliensis; settings: cited from earlier work
# [6] = test system: Gram-positive and Gram-negative bacteria and fungi; settings: cited from earlier work
# [7] = test system: HL-60 cells; settings: cells treated with phorbol 12-myristate-13-acetate; cited from earlier work
# [8] = test system: protein kinase C; settings: competing with diacylglycerol for the binding site; cited from earlier work
molecule,measurement,setting,value
"CCCCCCCCCCCCC/C=C/[C@@H](O)[C@@H](N)COP(=O)(O)OCC[N+](C)(C)C [Compound 163, reference compound]",inhibition at 10 µg/mL,"[1]; Mus musculus, L1210, 10 μg/ml",38%
same,inhibition at 25 µg/mL,"[1]; Mus musculus, L1210, 25 μg/ml",50%
same,inhibition at 50 µg/mL,"[1]; Mus musculus, L1210, 50 μg/ml",88%
same,% Pointed cells,[2]; 10 μg/ml,0%
same,% Pointed cells,[2]; 25 μg/ml,0%
same,% Pointed cells,[2]; 50 μg/ml,0%
Lysophosphatidic acid [LPA],effect of LPA added prior to spisulosine on morphology,"[3]; 10 mM LPA 2 hours, then 0.5 mM spisulosine 285 for 18 hours",prevents the morphological change promoted by spisulosine
same,level of actin,"[3]; 10 mM LPA, 2 hours",increasing the level of actin
"CCCCCCCCCCCCCCCCCCN [Compound 131, stearylamine, reference compound]",L1210 cytotoxicity (in words),[1],moderate cytotoxicity
same,inhibition at 0.1 µg/mL,"[1]; Mus musculus, L1210, 0.1 μg/ml, read-out: % Inhibition",0%
same,inhibition at […],"[1]; Mus musculus, L1210, 0.25 μg/ml, read-out: % Inhibition",0%
same,inhibition at 0.5 µg/mL,"[1]; Mus musculus, L1210, 0.5 μg/ml, read-out: % Inhibition",0%
same,inhibition at 1 µg/mL,"[1]; Mus musculus, L1210, 1 μg/ml, read-out: % Inhibition",19%
same,inhibition at […],"[1]; Mus musculus, L1210, 2.5 μg/ml, read-out: % Inhibition",96%
same,inhibition at 5 µg/mL,"[1]; Mus musculus, L1210, 5 μg/ml, read-out: % Inhibition",99%
same,L1210 morphological alteration / pointed cell activity (in words),[2],no morphological effect
same,% Pointed cells,[2]; 0.1 μg/ml,0%
same,% Pointed cells,[2]; 0.5 μg/ml,0%
same,% Pointed cells,[2]; 1 μg/ml,0%
same,% Pointed cells,[2]; 5 μg/ml,0%
same,cytotoxicity,[4],cytotoxic
C=CCCCCCCCCCC(O)C(C)N (centres unmarked) [Xestaminol A],antihelminthic activity,[5],antihelminthic activity
same,activity against bacteria and fungi,[6],weak activity
"CCCCCCCCCCCCCCC[C@@H](O)[C@@H](N)CO [Compound 164, dihydrosphingosine]",cytotoxicity,[4],did not affect the cytotoxicity
"CCCCCCCCCCCCC/C=C/[C@@H](O)[C@@H](N)CO (relative stereo) [sphingosine, D-trans-erythro-sphingosine, reference compound]",L1210 cytotoxicity (in words),[1],moderate cytotoxicity
same,% Inhibition,[1]; 0.1 μg/ml,0%
same,% Inhibition,[1]; 0.5 μg/ml,31%
same,% Inhibition,[1]; 1 μg/ml,75%
same,% Inhibition,[1]; 5 μg/ml,100%
same,L1210 morphological alteration / pointed cell activity (in words),[2],no morphological effect
same,% Pointed cells,[2]; 0.1 μg/ml,0%
same,% Pointed cells,[2]; 0.5 μg/ml,0%
same,% Pointed cells,[2]; 1 μg/ml,0%
same,% Pointed cells,[2]; 5 μg/ml,0%
same,differentiation of HL-60 cells,[7],inhibit the differentiation
same,cytotoxicity,[4],cytotoxic
same,inhibition of protein kinase C,[8],potent inhibitor
"CCCCCCCCCCCCCCC[C@H](O)[C@H](C)N [Compound 154, (2S,3S)-2-amino-3-octadecanol]",inhibition at 0.1 µg/mL,"[1]; Mus musculus, L1210, 0.1 μg/ml, read-out: % Inhibitiion",0%
same,inhibition at […],"[1]; Mus musculus, L1210, 0.25 μg/ml, read-out: % Inhibitiion",0%
same,inhibition at 0.5 µg/mL,"[1]; Mus musculus, L1210, 0.5 μg/ml, read-out: % Inhibitiion",0%
same,inhibition at 1 µg/mL,"[1]; Mus musculus, L1210, 1 μg/ml, read-out: % Inhibitiion",63%
same,inhibition at […],"[1]; Mus musculus, L1210, 2.5 μg/ml, read-out: % Inhibitiion",100%
same,inhibition at 5 µg/mL,"[1]; Mus musculus, L1210, 5 μg/ml, read-out: % Inhibitiion",100%
same,% Pointed Cells 1st,[2]; 0.1 μg/ml,0%
same,% Pointed Cells 1st,[2]; 0.5 μg/ml,0%
same,% Pointed Cells 1st,[2]; 1 μg/ml,0%
same,% Pointed Cells 1st,[2]; 5 μg/ml,0%
